Numbered stars: 1 amine (or outer) side, 2 acyl side, 3 side chain; on linkers, the order of the positions; unused ones are H or OH. Bridge positions count the residues as written; N and C are the ends. Peptide text beside a SMILES is read from it. * marks the point of attachment. X1 = O=C(O)CN1CCN(CC(=O)O)CCN(CC(=O)N2CCN(Cc3cc(C[*:1])cc(C[*:2])c3)CC2)CCN(CC(=O)O)CC1; Hexanoyl = CCCCCC(=O)*
Columns and labels:
CCK1 (CCKA) (h) = CCK1 (CCKA) (h) (Homo sapiens, UniProt P32238); assay: biochemical; settings: read-out: % Inhibition of Specific Binding
Chain of CCK1 (CCKA) (h) (P32238 whole entry): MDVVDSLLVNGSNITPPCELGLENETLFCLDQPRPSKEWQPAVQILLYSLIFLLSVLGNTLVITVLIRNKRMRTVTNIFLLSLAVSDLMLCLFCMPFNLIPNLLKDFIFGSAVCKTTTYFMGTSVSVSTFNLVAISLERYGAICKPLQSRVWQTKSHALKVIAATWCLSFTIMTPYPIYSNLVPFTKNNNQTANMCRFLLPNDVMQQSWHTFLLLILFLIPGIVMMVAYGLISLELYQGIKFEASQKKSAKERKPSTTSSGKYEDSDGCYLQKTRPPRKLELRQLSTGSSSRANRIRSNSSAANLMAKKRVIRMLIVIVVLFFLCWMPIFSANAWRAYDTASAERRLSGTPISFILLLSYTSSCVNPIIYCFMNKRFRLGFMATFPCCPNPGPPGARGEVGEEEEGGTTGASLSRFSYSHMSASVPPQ

COX2(h) = COX2(h) (Homo sapiens, UniProt P35354); assay: biochemical; settings: read-out: % Inhibition of Specific Binding
Chain of COX2(h) (P35354 18-604): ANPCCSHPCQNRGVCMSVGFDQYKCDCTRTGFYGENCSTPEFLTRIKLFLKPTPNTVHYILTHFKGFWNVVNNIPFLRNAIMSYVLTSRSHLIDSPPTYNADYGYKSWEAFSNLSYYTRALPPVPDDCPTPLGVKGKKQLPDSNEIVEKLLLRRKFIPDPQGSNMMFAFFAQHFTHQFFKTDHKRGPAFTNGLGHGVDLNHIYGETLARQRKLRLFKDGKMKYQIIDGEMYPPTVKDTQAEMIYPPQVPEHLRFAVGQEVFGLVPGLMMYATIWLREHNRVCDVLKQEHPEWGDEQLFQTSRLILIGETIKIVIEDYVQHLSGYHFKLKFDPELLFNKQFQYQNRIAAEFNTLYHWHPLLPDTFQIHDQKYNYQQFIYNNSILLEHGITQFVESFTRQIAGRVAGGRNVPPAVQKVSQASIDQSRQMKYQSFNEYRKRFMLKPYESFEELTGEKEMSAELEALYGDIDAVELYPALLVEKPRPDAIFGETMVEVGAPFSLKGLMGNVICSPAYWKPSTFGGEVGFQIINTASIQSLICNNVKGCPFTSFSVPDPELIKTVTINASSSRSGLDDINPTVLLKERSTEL

in vivo = settings: mouse, iv; for clearance: in vivo; for AUC(0-inf) / C0 / half-life / Vd: plasma; for Vd: mouse plasma
Cathepsin B = Cathepsin B (Homo sapiens, UniProt P07858); assay: biochemical; settings: read-out: Percentage inhibition (%)
DPP3 = DPP3 (Homo sapiens, UniProt Q9NY33); assay: biochemical; settings: read-out: Percentage inhibition (%)
Chain of DPP3 (Q9NY33 whole entry, species assumed): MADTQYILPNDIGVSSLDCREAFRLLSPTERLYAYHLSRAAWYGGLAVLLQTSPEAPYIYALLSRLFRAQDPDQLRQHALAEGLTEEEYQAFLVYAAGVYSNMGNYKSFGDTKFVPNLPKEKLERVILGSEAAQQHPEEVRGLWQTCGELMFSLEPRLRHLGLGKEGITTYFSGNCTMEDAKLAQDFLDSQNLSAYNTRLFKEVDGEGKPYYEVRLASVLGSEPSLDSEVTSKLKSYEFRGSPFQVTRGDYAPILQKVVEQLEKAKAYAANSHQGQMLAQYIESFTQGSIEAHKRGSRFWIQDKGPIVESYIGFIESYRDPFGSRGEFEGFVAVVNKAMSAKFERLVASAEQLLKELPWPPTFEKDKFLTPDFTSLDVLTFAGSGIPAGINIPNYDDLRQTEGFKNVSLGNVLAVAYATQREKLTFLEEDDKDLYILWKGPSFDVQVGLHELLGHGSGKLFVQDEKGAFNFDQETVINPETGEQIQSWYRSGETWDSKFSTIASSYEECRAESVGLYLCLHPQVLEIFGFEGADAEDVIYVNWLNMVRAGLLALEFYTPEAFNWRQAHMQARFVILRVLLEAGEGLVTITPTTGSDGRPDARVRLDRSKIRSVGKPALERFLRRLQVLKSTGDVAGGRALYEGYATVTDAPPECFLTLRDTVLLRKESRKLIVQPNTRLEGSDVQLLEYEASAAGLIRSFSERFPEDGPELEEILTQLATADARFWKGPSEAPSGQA

Matrix metalloprotease 2 = molecular target: T1, Matrix metalloprotease 2 (Homo sapiens, UniProt P08253); assay: biochemical; settings: read-out: Percentage inhibition (%)
T1 sequence (P08253 110-660): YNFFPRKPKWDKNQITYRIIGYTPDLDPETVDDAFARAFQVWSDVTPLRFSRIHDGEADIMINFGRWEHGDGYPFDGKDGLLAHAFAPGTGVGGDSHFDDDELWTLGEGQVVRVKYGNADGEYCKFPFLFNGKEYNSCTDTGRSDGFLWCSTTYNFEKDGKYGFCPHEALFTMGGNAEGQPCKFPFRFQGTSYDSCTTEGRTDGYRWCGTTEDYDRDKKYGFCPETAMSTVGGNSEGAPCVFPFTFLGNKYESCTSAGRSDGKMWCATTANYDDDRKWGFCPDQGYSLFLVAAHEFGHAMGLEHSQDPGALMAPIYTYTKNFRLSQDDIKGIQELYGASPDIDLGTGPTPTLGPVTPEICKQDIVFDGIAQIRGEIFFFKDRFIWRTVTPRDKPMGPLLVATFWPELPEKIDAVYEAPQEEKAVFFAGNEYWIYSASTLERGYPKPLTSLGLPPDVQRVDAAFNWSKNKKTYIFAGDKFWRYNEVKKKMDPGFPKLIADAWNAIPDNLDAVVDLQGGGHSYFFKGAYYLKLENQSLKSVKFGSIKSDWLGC

5-HT transporter (h) = 5-HT transporter (h) (Homo sapiens, UniProt P31645); assay: biochemical; settings: read-out: % Inhibition of Specific Binding
Chain of 5-HT transporter (h) (P31645 whole entry): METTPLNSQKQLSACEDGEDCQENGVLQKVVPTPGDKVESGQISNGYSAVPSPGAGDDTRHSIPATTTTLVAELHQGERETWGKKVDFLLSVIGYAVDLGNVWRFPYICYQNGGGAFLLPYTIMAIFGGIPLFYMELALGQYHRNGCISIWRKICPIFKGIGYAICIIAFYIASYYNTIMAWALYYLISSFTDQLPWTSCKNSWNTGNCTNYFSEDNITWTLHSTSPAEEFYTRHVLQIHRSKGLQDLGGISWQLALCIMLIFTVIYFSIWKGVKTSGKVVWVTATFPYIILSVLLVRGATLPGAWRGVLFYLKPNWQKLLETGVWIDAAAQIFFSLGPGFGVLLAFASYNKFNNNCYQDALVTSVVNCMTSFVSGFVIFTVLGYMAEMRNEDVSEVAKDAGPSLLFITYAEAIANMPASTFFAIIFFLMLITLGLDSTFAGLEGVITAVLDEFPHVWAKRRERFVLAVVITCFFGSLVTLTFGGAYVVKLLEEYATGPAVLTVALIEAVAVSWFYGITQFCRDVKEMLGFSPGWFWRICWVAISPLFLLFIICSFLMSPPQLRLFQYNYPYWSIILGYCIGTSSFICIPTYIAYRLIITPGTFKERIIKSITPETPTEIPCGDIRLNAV

Cathepsin F = molecular target: T2, Cathepsin F (Homo sapiens, UniProt Q9UBX1); assay: biochemical; settings: read-out: Percentage inhibition (%)
T2 sequence (Q9UBX1 271-484): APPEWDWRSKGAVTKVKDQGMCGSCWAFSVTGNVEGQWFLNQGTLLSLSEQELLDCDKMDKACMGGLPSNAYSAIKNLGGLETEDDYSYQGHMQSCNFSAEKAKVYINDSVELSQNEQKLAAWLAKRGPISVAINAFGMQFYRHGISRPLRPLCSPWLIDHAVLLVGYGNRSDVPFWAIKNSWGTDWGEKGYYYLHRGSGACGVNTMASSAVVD

alpha 1A (h) = molecular target: T3, alpha 1A (h) (Homo sapiens, UniProt P35348); assay: biochemical; settings: read-out: % Inhibition of Specific Binding
T3 sequence (P35348 1-466): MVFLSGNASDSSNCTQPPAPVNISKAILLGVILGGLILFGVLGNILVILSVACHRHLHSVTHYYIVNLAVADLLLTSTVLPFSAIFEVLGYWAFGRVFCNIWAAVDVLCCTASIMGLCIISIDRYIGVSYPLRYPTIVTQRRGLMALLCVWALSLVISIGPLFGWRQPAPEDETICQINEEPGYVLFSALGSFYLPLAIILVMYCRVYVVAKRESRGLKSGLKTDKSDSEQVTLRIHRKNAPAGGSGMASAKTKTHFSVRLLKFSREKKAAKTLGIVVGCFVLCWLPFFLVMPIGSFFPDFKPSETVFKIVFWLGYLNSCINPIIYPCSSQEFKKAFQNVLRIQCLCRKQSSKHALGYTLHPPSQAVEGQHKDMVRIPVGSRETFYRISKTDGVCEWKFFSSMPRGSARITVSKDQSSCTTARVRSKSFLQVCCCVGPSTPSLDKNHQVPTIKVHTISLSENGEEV

Row | SMILES | inhibition at 10 µM (CCK1 (CCKA) (h)) | inhibition at 10 µM (COX2(h)) | inhibition at 1 µM (Cathepsin B) | inhibition at 10 µM (Cathepsin B) | inhibition at 1 µM (Matrix metalloprotease 2) | inhibition at 10 µM (Matrix metalloprotease 2) | inhibition at 10 µM (5-HT transporter (h)) | inhibition at 1 µM (Cathepsin F) | inhibition at 10 µM (Cathepsin F) | inhibition at 10 µM (alpha 1A (h)) | also measured
1 | CCCCCC(=O)N[C@H]1CSCc2cc(CSCCNC(=O)CN3CCN(CC(=O)O)CCN(CC(=O)O)CCN(CC(=O)O)CC3)cc(c2)CSC[C@@H](C(=O)O)NC(=O)[C@H](Cc2ccccc2)NC(=O)[C@H](CCC(N)=O)NC(=O)[C@H]([C@@H](C)O)NC(=O)[C@@H]2CCCN2C(=O)[C@@H]2CCCN2C1=O [Compound 3BP-3554, Hex-[Cys(tMeBn(DOTA-AET))-Pro-Pro-Thr-Gln-Phe-Cys]-OH] | 16% | -22% | 1% | 2% | -1% | -2% | -8% | -23% | -25% | -12% | clearance (in vivo; 4 nmol/kg): 8.03 mL/min/kg; clearance (in vivo; 40 nmol/kg): 11.8 mL/min/kg; clearance (in vivo; 400 nmol/kg): 8.03 mL/min/kg; AUC(0-inf) (in vivo; 4 nmol/kg): 0.0083 µM·h; C0 (in vivo; 4 nmol/kg): 25.6 nM; half-life (in vivo; 4 nmol/kg): 23 min; Vd (in vivo; 4 nmol/kg, Vss, intravenous 4 nmol/kg): 0.21 L/kg; Vd (in vivo; 4 nmol/kg, Vz, intravenous 4 nmol/kg): 0.26 L/kg; AUC(0-inf) (in vivo; 40 nmol/kg): 0.056 µM·h; C0 (in vivo; 40 nmol/kg): 177 nM; half-life (in vivo; 40 nmol/kg): 59 min; Vd (in vivo; 40 nmol/kg, Vss, intravenous 40 nmol/kg): 0.32 L/kg; Vd (in vivo; 40 nmol/kg, Vz, intravenous 40 nmol/kg): 1.02 L/kg; AUC(0-inf) (in vivo; 400 nmol/kg): 0.961 µM·h; C0 (in vivo; 400 nmol/kg): 4970 nM; half-life (in vivo; 400 nmol/kg): 40 min; Vd (in vivo; 400 nmol/kg, Vss, intravenous 400 nmol/kg): 0.1 L/kg; Vd (in vivo; 400 nmol/kg, Vz, intravenous 400 nmol/kg): 0.21 L/kg; inhibition at 1 µM (DPP3): 2%; inhibition at 10 µM (DPP3): -1%
2 | CCCCCC(=O)N[C@H]1CSCc2cc(cc(CN3CCN(C(=O)CN4CCN(CC(=O)O)CCN(CC(=O)O)CCN(CC(=O)O)CC4)CC3)c2)CSC[C@@H](C(=O)N[C@@H](CC(=O)O)C(N)=O)NC(=O)[C@H](Cc2ccccc2)NC(=O)[C@H](CCC(N)=O)NC(=O)[C@H]([C@@H](C)O)NC(=O)[C@@H]2CCCN2C(=O)[C@@H]2CCCN2C1=O [Compound 3BP-3407, Hex-[Cys(tMeBn(DOTA-PP))-Pro-Pro-Thr-Gln-Phe-Cys]-Asp-NH2] (Hexanoyl-CPPTQFCD-NH2; linker 1-7 via X1) | 24% | -14% | 26% | 36% | 3% | 3% | -3% | -3% | -24% | 2% | –
